# No end group written: not given here.
# Legend:
# [1] = molecular target: trypsin; assay: equilibrium binding of fluorescently-labeled trypsin to yeast-displayed EETIwt (flow cytometry); conditions: data not shown
# From the text: We measured cell surface expression levels of the EETIwt fusion protein by flow cytometry, after staining yeast cells with a primary antibody against a C-terminal cMyc epitope tag followed by the addition of a fluorescently-labeled secondary antibody. […] (Figure 2).
# Figure 2 Yeast surface display of EETI knottins and isolation of properly folded EETI loop-substituted clones. […] Density plots depict protein expression (x-axis) versus trypsin binding (y-axis) for enriched pools of loop-substituted clones after four rounds of sorting. […] (C) The progression of enrichment for properly folded EETI loop-substituted variants was monitored by flow cytometry and quantified by trypsin binding levels (at 25 nM), normalized for differences in protein expression levels. Unsorted libraries (white), libraries after two rounds of sorting (light grey), and libraries after four rounds of sorting (dark grey), as compared to EETIwt (striped). Trypsin-binding experiments were performed in triplicate and error bars denote standard deviations.
# YPD media contained 20 g/L dextrose, 20 g/L peptone, and 10 g/L yeast extract. Selective SD-CAA media contained 20 g/L dextrose, 6.7 g/L yeast nitrogen base without amino acids, 5.4 g/L Na2HPO4, 8.6 g/L NaH2PO4⋅H2O, and 5 g/L Bacto casamino acids. […]
# [2] = system: trypsin; assay: trypsin binding of individual yeast-displayed EETI loop 3 clones by dual-color flow cytometry; conditions: triplicate; for trypsin binding level as percentage of EETIwt / trypsin binding level relative to EETIwt (fold higher): adjusted for expression (cMyc), normalized to EETIwt; for statistical significance of trypsin binding level over the highest-binding randomly-generated clone: single-factor ANOVA (p<0.02), 25 nM trypsin; for trypsin binding level relative to EETIwt (fold higher): single-factor ANOVA p<0.05 vs EETIwt
# From the text: In addition, we also constructed twenty-five clones where EETI loop 3 was replaced by a randomly-generated nine-amino acid sequence (Table S2). Plasmids containing DNA encoding for predicted and randomly-generated clones were transformed into yeast and induced for expression on the yeast cell surface as described above. Next, we analyzed the predicted and randomly-generated EETI loop 3 clones by dual-color flow cytometry for yeast cell surface expression and binding to fluorescent trypsin, indicating retention of the knottin fold (Figure 8). […] Overall, the least-similar predicted clones also bound trypsin, but not as well as the motif-filtered clones, as expected. The small differences in trypsin binding levels of six of the least-similar predicted clones as compared to EETIwt were deemed statistically insignificant, based on single-factor ANOVA (p<0.05). […] Even the best randomly-generated clone only bound trypsin at 16% of the wild-type EETI trypsin binding level. The successful prediction of nine-amino acid sequences that can be substituted into EETI loop 3 without disrupting the knottin fold highlights the potential of this combinatorial approach for rational protein engineering applications.
# Figure 8 Trypsin-binding levels of EETI loop 3 predicted and randomly-generated clones. […] Predicted clones are preceded with a ‘p’ while randomly-generated clones are preceded with an ‘r.’ Protein expression levels were quantified by immunofluorescence staining of the cMyc epitope tag. Retention of the knottin fold was determined by binding of fluorescently-labeled trypsin (25 nM). Trypsin binding levels were adjusted to account for differences in protein expression levels and then normalized to the trypsin-binding level of EETIwt. Trypsin-binding experiments were performed in triplicate and error bars denote standard deviations.
# YPD media contained 20 g/L dextrose, 20 g/L peptone, and 10 g/L yeast extract. Selective SD-CAA media contained 20 g/L dextrose, 6.7 g/L yeast nitrogen base without amino acids, 5.4 g/L Na2HPO4, 8.6 g/L NaH2PO4⋅H2O, and 5 g/L Bacto casamino acids. Selective SD-CAA plates were of the same composition as the liquid media except with the addition of 182 g/L sorbitol and 15 g/L agar. SG-CAA media was identical to the SD-CAA media except dextrose was replaced with galactose. PBSA was composed of phosphate buffered saline containing 1 g/L bovine serum albumin. Lyophilized trypsin was purchased from Sigma Aldrich and fluorescently labeled with Alexa Fluor 488 tetrafluorophenyl ester (Invitrogen). Mouse anti-cMyc antibody was purchased from Covance and goat anti-mouse antibody conjugated to R-phycoerythrin was purchased from Sigma Aldrich.
# Four rounds of FACS were performed on each EETI loop-substituted library to obtain an enriched pool of trypsin-binding clones. Libraries of yeast clones induced for protein expression were suspended in PBSA with mouse anti-cMyc monoclonal antibody (1∶50 dilution) and incubated for 1 h at room temperature. Yeast were pelleted by centrifugation at 4,000 rpm for 5 min, the supernatant was aspirated, and cells were washed with ice-cold PBSA. Washed yeast libraries were resuspended in PBSA with goat anti-mouse R-phycoerythrin secondary antibody (1∶25 dilution) and Alexa 488-labeled trypsin and incubated on ice in the dark for 30 min. […] Collected library clones were propagated in SD-CAA media with penicillin-streptomycin (400 µg/mL), induced for protein expression in SG-CAA media and subjected to three additional rounds of sorting. For the first round of sorting, approximately 2×10^7 yeast were sorted from each library, and at least 10 times the number of collected yeast were sorted in each subsequent round to decrease the probability of losing unique clones. Sort stringency was increased by gradually decreasing the concentration of Alexa488-labeled trypsin from 200 nM in the first round to 25 nM in the fourth round. […]
# [3] = 25 nM fluorescently-labeled trypsin
substance,measurement,setting,value
Ecballium elaterium trypsin inhibitor II [EETIwt],Kd,"[1]; Alexa Fluor 488-labeled trypsin, read-out: approximate equilibrium binding constant",~25 nM
same,"trypsin binding specificity, in words",[1]; fluorescently-labeled trypsin,bound specifically
"NNTNTGRGY (disulfide (positions not given here)) [p20, least-similar predicted EETI loop 3 clone, …]",trypsin binding level as percentage of EETIwt,[2]; [3],approximately 30%
same,statistical significance of trypsin binding level over the highest-binding randomly-generated clone,[2],statistically significant over the highest-binding randomly-generated clone
"NRNRKTPGY (disulfide (positions not given here)) [p3, motif-filtered predicted EETI loop 3 clone, …]",trypsin binding level as percentage of EETIwt,[2]; [3],approximately 70%
"NRNRRRTGY (disulfide (positions not given here)) [p1, motif-filtered predicted EETI loop 3 clone, …]",trypsin binding level relative to EETIwt (fold higher),[2]; [3],roughly 1.5 -fold
"NTTNNSPGY (disulfide (positions not given here)) [p25, least-similar predicted EETI loop 3 clone, …]",trypsin binding level as percentage of EETIwt,[2]; [3],approximately 30%
same,statistical significance of trypsin binding level over the highest-binding randomly-generated clone,[2],statistically significant over the highest-binding randomly-generated clone
"RRNRKTLGY (disulfide) [p9, motif-filtered predicted EETI loop 3 clone, …]",trypsin binding level relative to EETIwt (fold higher),[2]; [3],roughly 1.5 -fold
"potato carboxypeptidase inhibitor: a knottin that does not bind trypsin; negative control (QQHADPICNKPCKTHDDCSGAWFCQACWNSARTCGPYVG; ends and bridges not checked; cysteine pairing not given here; UniProt P01075 1-39, looked up) [reference compound]",trypsin binding level as percentage of EETIwt,[2]; [3],< 5%
same,"trypsin binding, in words","[2]; 25 nM fluorescently-labeled trypsin, yeast surface display",does not bind trypsin

# Reference: PMC2725296, “Interrogating and Predicting Tolerated Sequence Diversity in Protein Folds: Application to E. elaterium Trypsin Inhibitor-II Cystine-Knot Miniprotein” (PLoS Computational Biology, 2009)
